The assay concerns the target T1, hFXR (Homo sapiens, UniProt Q96RI1).
T1 construct: expressed in transfected cells; host or cells: CV-1 cells
T1 sequence (Q96RI1 1-486): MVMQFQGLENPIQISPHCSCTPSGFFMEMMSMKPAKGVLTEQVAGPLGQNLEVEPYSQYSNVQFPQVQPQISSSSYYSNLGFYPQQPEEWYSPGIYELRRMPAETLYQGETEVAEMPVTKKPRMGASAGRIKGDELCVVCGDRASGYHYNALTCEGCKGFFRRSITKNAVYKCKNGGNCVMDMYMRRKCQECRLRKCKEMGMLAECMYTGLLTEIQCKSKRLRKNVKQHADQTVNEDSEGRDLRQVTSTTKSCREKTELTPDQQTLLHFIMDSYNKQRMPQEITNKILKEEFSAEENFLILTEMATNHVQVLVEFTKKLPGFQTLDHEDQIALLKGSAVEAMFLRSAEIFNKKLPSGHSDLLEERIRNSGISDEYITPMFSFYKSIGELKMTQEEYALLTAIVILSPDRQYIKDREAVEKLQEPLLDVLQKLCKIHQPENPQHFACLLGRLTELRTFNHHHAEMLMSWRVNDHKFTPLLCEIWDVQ
T1 sequence (P19793 1-462 partner): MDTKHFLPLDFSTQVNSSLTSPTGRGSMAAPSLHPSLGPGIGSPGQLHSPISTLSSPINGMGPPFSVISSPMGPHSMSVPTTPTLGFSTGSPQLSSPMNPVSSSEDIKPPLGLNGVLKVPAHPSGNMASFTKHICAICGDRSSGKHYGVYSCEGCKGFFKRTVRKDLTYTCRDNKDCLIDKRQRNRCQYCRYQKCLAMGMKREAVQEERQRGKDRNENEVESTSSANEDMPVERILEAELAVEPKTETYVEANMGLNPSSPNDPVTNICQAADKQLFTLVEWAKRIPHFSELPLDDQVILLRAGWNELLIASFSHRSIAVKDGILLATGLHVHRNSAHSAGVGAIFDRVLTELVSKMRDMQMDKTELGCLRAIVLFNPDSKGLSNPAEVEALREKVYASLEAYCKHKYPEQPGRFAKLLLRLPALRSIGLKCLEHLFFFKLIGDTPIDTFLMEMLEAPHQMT
The assay can be described thus: In Vitro FXR Assay (TK): TK-ECRE-luc reporter in transfected CV-1 cells. Format: cell-based. As to conditions: 18 hrs incubation, luminescence. Put shortly:
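Luminescence from a TK-ECRE-luc reporter was read after 18 h of compound exposure in CV-1 cells. These cells were grown in charcoal-stripped FBS medium and transiently transfected with hFXR, hRXR and YFP expression plasmids.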
Consider `COc1ccc(C23CCC(CN(c4cc(-c5cnc(C(C)C)s5)ccn4)C(=O)[C@H]4CC[C@H](OC(=O)N5CC(OCCO)C5)CC4)(CC2)CC3)cc1C` [Compound 4.38, 4-((4-(2-Isopropylthiazol-5-yl)pyridin-2-yl)((4-(4-methoxy-3-methylphenyl)bicyclo[2.2.2]octan-1-yl)methyl)carbamoyl) (trans-cyclohexyl) 3-(2-hydroxyethoxy)azetidine-1-carboxylate], for which the EC50 was ≤ 50 nM. The same measure for `COc1ccc(C23CCC(CN(c4cc(-c5cnc(C(C)C)s5)ccn4)C(=O)[C@H]4CC[C@H](OC(=O)NCCC(C)(C)O)CC4)(CC2)CC3)cc1C` [Compound 4.39, 4-((4-(2-Isopropylthiazol-5-yl)pyridin-2-yl)((4-(4-methoxy-3-methylphenyl)bicyclo[2.2.2]octan-1-yl)methyl)carbamoyl)(trans-cyclohexyl) (3-hydroxy-3-methylbutyl)carbamate]: ≤ 50 nM; for `COc1ccc(C23CCC(CN(c4cc(-c5nnn(C(C)C)n5)ccn4)C(=O)[C@H]4CC[C@H](OC(=O)N5CC(O)C5)CC4)(CC2)CC3)cc1C` [Compound 26.16, 4-((4-(2-Isopropyl-2H-tetrazol-5-yl)pyridin-2-yl)((4-(4-methoxy-3-methylphenyl)bicyclo[2.2.2]octan-1-yl)methyl)carbamoyl)cyclohexyl trans-3-hydroxyazetidine-1-carboxylate]: ≤ 50 nM. The same measure for `COc1ccc(C23CCC(CN(c4cc(-c5cnc(C(C)C)s5)ccn4)C(=O)[C@H]4CC[C@H](NC(C)=O)CC4)(CC2)CC3)cc1C` [Compound 9.04, (trans)-4-Acetamido-N-(4-(2-isopropylthiazol-5-yl)pyridin-2-yl)-N-((4-(4-methoxy-3-methylphenyl)bicyclo[2.2.2]octan-1-yl)methyl)cyclohexanecarboxamide]: ≤ 50 nM; for `COCCOC(=O)N[C@H]1CC[C@H](C(=O)N(CC23CCC(c4ccc(OC)c(C)c4)(CC2)CC3)c2cc(-c3cnn(C(C)C)c3)ccn2)CC1` [Compound 7.01, (trans)-2-Methoxyethyl (4-((4-(1-isopropyl-1H-pyrazol-4-yl)pyridin-2-yl)((4-(4-methoxy-3-methylphenyl)bicyclo[2.2.2]octan-1-yl)methyl)carbamoyl)cyclohexyl) carbamate]: ≤ 50 nM.

The compound `CCOC(=O)NC[C@H]1CC[C@H](C(=O)N(C[C@H]2CC[C@H](c3ccc(OC)c(C)c3)CC2)c2cccc(-c3cnn(C(C)C)c3)c2)CC1` [Compound 12.03, Ethyl (((trans)-4-((3-(1-isopropyl-1H-pyrazol-4-yl)phenyl)(((trans)-4-(4-methoxy-3-methylphenyl)cyclohexyl)methyl)carbamoyl)cyclohexyl)methyl)car-bamate] registered an EC50 of 50 to 1000 nM. As to `COc1ccc([C@H]2CC[C@H](CN(c3cc(-c4cnn(C(C)C)c4)ccn3)C(=O)[C@H]3CC[C@H](OCCCO)CC3)CC2)cc1C` [Compound 16.01, trans-4-(3-Hydroxypropoxy)-N-(4-(1-isopropyl-1H-pyrazol-4-yl)pyridin-2-yl)-N-((trans-4-(4-methoxy-3-methylphenyl)cyclohexyl)methyl)cyclo-hexanecarboxamide], the EC50 is ≤ 50 nM. As for `COc1ccc(C23CCC(CN(c4cc(-c5coc(C6CC6)n5)ccn4)C(=O)[C@H]4CC[C@H](NC(=O)CO)CC4)(CC2)CC3)cc1C` [Compound 9.11, (trans)-N-(4-(2-Cyclopropyloxazol-4-yl)pyridin-2-yl)-4-(2-hydroxyacetamido)-N-((4-(4-methoxy-3-methylphenyl)bicyclo[2.2.2]octan-1-yl)methyl)cyclohexanecarboxamide], the EC50 is ≤ 50 nM. The same measure for `CNC(=O)O[C@H]1CC[C@H](C(=O)N(CC23CCC(c4ccc(OC)c(C)c4)(CC2)CC3)c2cc(-c3cnn(C(C)C)c3)ccn2)CC1` [Compound 4.03, 4-((4-(1-Isopropyl-1H-pyrazol-4-yl)pyridin-2-yl)((4-(4-methoxy-3-methylphenyl)bicyclo [2.2.2]octan-1-yl)methyl)carbamoyl)cyclohexyl trans-methylcarbamate]: ≤ 50 nM.

Take `COc1ccc(C23CCC(CN(c4cc(-c5cnc(C(C)C)o5)ccn4)C(=O)[C@H]4CC[C@H](OC(=O)N5CC(O)C5)CC4)(CC2)CC3)cc1C` [Compound 4.25, 4-((4-(2-Isopropyloxazol-5-yl)pyridin-2-yl)((4-(4-methoxy-3-methylphenyl)bicyclo[2.2.2]octan-1-yl)methyl)carbamoyl) cyclohexyl 3-hydroxyazetidine-trans-1-carboxylate]: the EC50 was ≤ 50 nM.

Regarding `COc1ccc(C23CCC(CN(c4cc(-c5cnn(C(C)C)c5)ccn4)C(=O)[C@H]4CC[C@H](OC(=O)N5CC(O)C5)CC4)(CC2)CC3)cc1F` [Compound 26.08, 4-(((4-(3-Fluoro-4-methoxyphenyl)bicyclo[2.2.2]octan-1-yl)methyl)(4-(1-isopropyl-1H-pyrazol-4-yl)pyridin-2-yl)carbamoyl)cyclohexyl trans-3-hydroxyazetidine-1-carboxylate], the EC50 is ≤ 50 nM. As for `COc1ccc(C23CCC(CN(c4cc(-c5cnn(C(C)C)c5)ncn4)C(=O)[C@H]4CC[C@H](OC(=O)N5CC(O)C5)CC4)(CC2)CC3)cc1C` [Compound 23, 4-((6-(1-Isopropyl-1H-pyrazol-4-yl)pyrimidin-4-yl)((4-(4-methoxy-3-methylphenyl)bicyclo[2.2.2]octan-1-yl)methyl)carbamoyl)(trans-cyclohexyl) 3-hydroxyazetidine-1-carboxylate], the EC50 is ≤ 50 nM.

With `COc1ccc(C23CCC(CN(c4ccc(F)c(-c5cnn(C(C)C)c5)c4)C(=O)[C@H]4CC[C@H](OC(=O)N5CC(O)C5)CC4)(CC2)CC3)cc1C` [Compound 26.03, 4-((4-Fluoro-3-(1-isopropyl-1H-pyrazol-4-yl)phenyl)((4-(4-methoxy-3-methylphenyl)bicyclo[2.2.2]octan-1-yl)methyl)carbamoyl)(trans-cyclohexyl) 3-hydroxyazetidine-1-carboxylate], the EC50 is ≤ 50 nM. The same measure for `COc1ccc([C@H]2CC[C@H](CN(c3cccc(-c4cnn(C(C)C)c4)c3)C(=O)[C@H]3CC[C@H](OCCCO)CC3)CC2)cc1C` [Compound 16, trans-4-(3-Hydroxypropoxy)-N-(3-(1-isopropyl-1H-pyrazol-4-yl)phenyl)-N-((trans-4-(4-methoxy-3-methylphenyl)cyclohexyl)methyl)cyclohexanecarboxamide]: ≤ 50 nM; for `COc1ccc(C23CCC(CN(c4cc(-c5cnc(C6CC6)s5)ccn4)C(=O)[C@H]4CC[C@H](OC(=O)N5CC(CO)C5)CC4)(CC2)CC3)cc1C` [Compound 4.28, 4-((4-(2-Cyclopropylthiazol-5-yl)pyridin-2-yl)((4-(4-methoxy-3-methylphenyl)bicyclo[2.2.2]octan-1-yl)methyl)carbamoyl)(trans-cyclohexyl) 3-(hydroxymethyl)azetidine-1-carboxylate]: ≤ 50 nM. For the compound `COc1ccc([C@H]2CC[C@H](CN(c3cccc(-c4cnn(C(C)C)c4)c3)C(=O)[C@H]3CC[C@H](OC(=O)NCC(F)(F)CO)CC3)CC2)cc1C` [Compound 5.02, trans-4-((3-(1-Isopropyl-1H-pyrazol-4-yl)phenyl)(((trans)-4-(4-methoxy-3-methylphenyl)cyclohexyl)methyl)carbamoyl)cyclohexyl (2,2-difluoro-3-hydroxypropyl)carbamate], the EC50 is ≤ 50 nM.

Source of the values: patent US20220056019A1, “FARNESOID X RECEPTOR AGONISTS AND USES THEREOF” (Metacrine, Inc., priority 2018, published 2022).
